Here are results for 2 molecules from patent US8257478B2, “Use of marine fungus originated compounds as antifouling agents” (The Hong Kong University of Science and Technology, priority 2004, dated 2012).

In brackets after ≈: the same amount, converted by molar mass.

A word on the EC50: it is the concentration that produces a half-maximal response. The LC50 is the concentration that kills 50% of the test population. The low end stands for greater toxicity, the high end for lower toxicity.

The test system of one series is Ruegeria sp. As to the kind of experiment: agar disc diffusion assay, inhibition zone. It counts as cell-based. The following applies: 50 μg/disc, 30° C., 24 h; read-out: Inhibition Zone Width. The method, then: (§1) Antibacterial activity was tested against bacteria using an agar disc diffusion assay method. Sterile paper discs (6 mm i.d.) impregnated with the substance under test at a concentration of 50 μg disc^−1 were applied onto the surface of an agar plate (plastic Petri dish) inoculated with one strain with sterile forceps and gently pressed down to ensure good contact with the surface. Blank discs treated with the same volume of DMSO were added. A control disc, containing streptomycin was used. After the application of discs, the plates were incubated at 30° C. for 24 h, and then the size of the inhibition zone was measured.
(In agar diffusion tests the substance spreads into inoculated agar from a disc or well.)

The subject of the next series is Staphylococcus aureus. As to the kind of experiment: agar disc diffusion assay, inhibition zone. The following applies: 50 μg/disc, 30° C., 24 h, read-out: Inhibition Zone Width. The format is cell-based. The method, then:
as §1

The subject of the next series is Vibrio fluvialis. As to the kind of experiment: agar disc diffusion assay, inhibition zone. The format is cell-based. Conditions: 50 μg/disc, 30° C., 24 h, read-out: Inhibition Zone Width. Here is the method: as §1
as §1, with “using” for “using an”, “assay.” for “assay method.”, “disc” for “disc,”, “h. The” for “h, and then the”, “measured. The results are presented in Table 8 and Table 9 for Cyclo (D)-Pro-(D)-Phe and b3-methyl-N-(2-phenylethyl)butanamide, respectively.” for “measured.”

The next series relates to Pseudoalteromonas sp. As to the kind of experiment: agar disc diffusion assay, inhibition zone. It counts as cell-based. Conditions: 50 μg/disc, 30° C., 24 h, read-out: Inhibition Zone Width. Here is the method: as §1
as §1, with “using” for “using an”, “assay.” for “assay method.”, “disc” for “disc,”, “h. The” for “h, and then the”, “measured. The results are presented in Table 8 and Table 9 for Cyclo (D)-Pro-(D)-Phe and b3-methyl-N-(2-phenylethyl)butanamide, respectively.” for “measured.”

Another series concerns Vibrio sp. (NAP-4). As to the kind of experiment: agar disc diffusion assay, inhibition zone. It counts as cell-based. The following applies: 50 μg/disc, 30° C., 24 h, read-out: Inhibition Zone Width. Here is the method: as §1
as §1, with “using” for “using an”, “assay.” for “assay method.”, “disc” for “disc,”, “h. The” for “h, and then the”, “measured. The results are presented in Table 8 and Table 9 for Cyclo (D)-Pro-(D)-Phe and b3-methyl-N-(2-phenylethyl)butanamide, respectively.” for “measured.”

The subject of the next series is Vibrio harveyi. As to the kind of experiment: agar disc diffusion assay, inhibition zone. The format is cell-based. The following applies: 50 μg/disc, 30° C., 24 h, read-out: Inhibition Zone Width. The method, then:
as §1
as §1, with “using” for “using an”, “assay.” for “assay method.”, “disc” for “disc,”, “h. The” for “h, and then the”, “measured. The results are presented in Table 8 and Table 9 for Cyclo (D)-Pro-(D)-Phe and b3-methyl-N-(2-phenylethyl)butanamide, respectively.” for “measured.”

A further series deals with Moraxella phenylpyruvica. As to the kind of experiment: agar disc diffusion assay, inhibition zone. The format is cell-based. Conditions: Psychrobacter phenylpyruvicus; 50 μg/disc, 30° C., 24 h; read-out: Inhibition Zone Width. Here is the method: as §1
as §1, with “using” for “using an”, “assay.” for “assay method.”, “disc” for “disc,”, “h. The” for “h, and then the”, “measured. The results are presented in Table 8 and Table 9 for Cyclo (D)-Pro-(D)-Phe and b3-methyl-N-(2-phenylethyl)butanamide, respectively.” for “measured.”

In series [1] the test system is Staphylococcus haemolyticus. As to the kind of experiment: agar disc diffusion assay, inhibition zone. It counts as cell-based. The following applies: 50 μg/disc, 30° C., 24 h, read-out: Inhibition Zone Width. Here is the method:
as §1
as §1, with “using” for “using an”, “assay.” for “assay method.”, “disc” for “disc,”, “h. The” for “h, and then the”, “measured. The results are presented in Table 8 and Table 9 for Cyclo (D)-Pro-(D)-Phe and b3-methyl-N-(2-phenylethyl)butanamide, respectively.” for “measured.”

For series [2], the system named is Pseudoalteromonas piscida. As to the kind of experiment: agar disc diffusion assay, inhibition zone. The format is cell-based. Conditions: 50 μg/disc, 30° C., 24 h, read-out: Inhibition Zone Width. Here is the method: as §1
as §1, with “using” for “using an”, “assay.” for “assay method.”, “disc” for “disc,”, “h. The” for “h, and then the”, “measured. The results are presented in Table 8 and Table 9 for Cyclo (D)-Pro-(D)-Phe and b3-methyl-N-(2-phenylethyl)butanamide, respectively.” for “measured.”

In the next series the test system is Micrococcus luteus. The experiment in a line: agar disc diffusion assay, inhibition zone. It counts as cell-based. The following applies: 50 μg/disc, 30° C., 24 h, read-out: Inhibition Zone Width. The method, then:
as §1
as §1, with “using” for “using an”, “assay.” for “assay method.”, “disc” for “disc,”, “h. The” for “h, and then the”, “measured. The results are presented in Table 8 and Table 9 for Cyclo (D)-Pro-(D)-Phe and b3-methyl-N-(2-phenylethyl)butanamide, respectively.” for “measured.”

The next series has as its system Shewanella algae. The experiment in a line: agar disc diffusion assay, inhibition zone. The format is cell-based. The following applies: 50 μg/disc, 30° C., 24 h, read-out: Inhibition Zone Width. Here is the method:
as §1
as §1, with “using” for “using an”, “assay.” for “assay method.”, “disc” for “disc,”, “h. The” for “h, and then the”, “measured. The results are presented in Table 8 and Table 9 for Cyclo (D)-Pro-(D)-Phe and b3-methyl-N-(2-phenylethyl)butanamide, respectively.” for “measured.”

The subject of series [3] is barnacle Balanus amphitrite larvae. The experiment in a line: anti-larval settlement bioassay in 24-well plates. The format is in vivo. Conditions: for EC50: Amphibalanus amphitrite, Balanus amphitrite larvae, read-out: EC50 (anti-larval settlement). Here is the method: Anti-larval settlement activity of 3-chloro-2,5-dihydroxy benzyl alcohol (compound 1) was conducted using 24-well polystyrene plates. Pure compound was dissolved in DMSO and added to autoclaved FSW at different concentrations. Competent Balanus amphitrites larvae (10±2 individuals) were added to each well with 1 ml testing solution in 5 replicates, and wells containing FSW (filtered seawater) served as control. The 24-well plates were incubated at 30° C. for 24 h. The percent settlement was determined by counting the number of settled larvae under a dissecting microscope. In all bioassays, FSW served as the control. Statistical calculations were performed with the SPSS (Statistical Package for the Social Sciences) software package, Version 11.
(§2) The larval bioassay was conducted according to Rittschof et al. (1994), which is incorporated by reference herein in its entirety.
(§3) The assay was conducted according to Rittschof et al. (1994). Data plotted are means+SD of five replicates.
For determining anti-larval settlement activity, adult Balanus amphitrile (Darwin) were collected from the intertidal zone in Hong Kong (22°19′N, 114°16′E). Nauplii obtained from several adults were mass-reared to cyprid stage at a density of 2 larvae ml^−1 in 0.22-μm-filtered seawater with 30 ppt salinity (FSW) using Chaetoceros gracilis Schutt as food and a rearing temperature of 28° C. Newly transformed cyprids were used for the experiment.
Anti-larval settlement activity of succinic acid against B. amphitrite was determined using 24-well polystyrene plates. Pure compound was dissolved in autoclaved FSW ranged from 60-140 μg ml^−1 for B. amphitrite. Competent larvae (15±2 individuals) were added to each well with 1 ml testing solution in 5 replicates, and wells containing FSW served as the control. The 24-well plates were incubated at 30° C. for 24 h. The percent larval settlement was determined by counting the number of settled individuals under a dissecting microscope and expressed as a proportion of the total number of larvae in the well.

Series [4] in a line: solubility in organic solvents. The format is physicochemical. Conditions: at 25° C. in methanol, ethanol, propanol, butanol, ethyl acetate, acetone and acetonitrile.
Series [5] concerns Balanus amphitrite larvae. As to the kind of experiment: in vivo. Conditions: Balanus amphitrite, in vivo, 24 h. Here is the method: as §2
(§4) Toxicity of cyclo (D)-Pro-(D)-Phe was determined using 24-well polystyrene plates. Pure compound was dissolved in DMSO and added to autoclaved FSW to form different concentrations. Competent Balanus amphitrites larvae (10±2 individuals) were added to each well with 1 ml testing solution in 5 replicates. The wells containing FSW served as the control. The 24-well plates were incubated at 30° C. for 24 h. The percent mortality was determined by counting the number of dead larvae under a dissecting microscope.
as §3

A short description of a further series: in vivo. The following applies: Balanus amphitrite (barnacle) larvae, in vivo. The method, then:
as §2, §4, §3

Another series concerns Loktanella hongkongensis. As to the kind of experiment: agar disc diffusion assay, inhibition zone. The format is cell-based. The following applies: Limimaricola hongkongensis; 50 μg/disc, 30° C., 24 h; read-out: Inhibition Zone Width. The method, then: as §1, with “using” for “using an”, “assay.” for “assay method.”, “disc” for “disc,”, “h. The” for “h, and then the”, “measured. The results are presented in Table 8 and Table 9 for Cyclo (D)-Pro-(D)-Phe and b3-methyl-N-(2-phenylethyl)butanamide, respectively.” for “measured.”

In the next series the test system is Vibrio vulnificus. As to the kind of experiment: agar disc diffusion assay, inhibition zone. The following applies: 50 μg/disc, 30° C., 24 h, read-out: Inhibition Zone Width. It counts as cell-based. Here is the method: as §1, with “using” for “using an”, “assay.” for “assay method.”, “disc” for “disc,”, “h. The” for “h, and then the”, “measured. The results are presented in Table 8 and Table 9 for Cyclo (D)-Pro-(D)-Phe and b3-methyl-N-(2-phenylethyl)butanamide, respectively.” for “measured.”

The test system of another series is Vibrio halioticoli. The experiment in a line: agar disc diffusion assay, inhibition zone. It counts as cell-based. Conditions: 50 μg/disc, 30° C., 24 h, read-out: Inhibition Zone Width. Here is the method:
as §1, with “using” for “using an”, “assay.” for “assay method.”, “disc” for “disc,”, “h. The” for “h, and then the”, “measured. The results are presented in Table 8 and Table 9 for Cyclo (D)-Pro-(D)-Phe and b3-methyl-N-(2-phenylethyl)butanamide, respectively.” for “measured.”

The test system of the next series is Rhodovulum sp. The experiment in a line: agar disc diffusion assay, inhibition zone. It counts as cell-based. The following applies: 50 μg/disc, 30° C., 24 h; read-out: Inhibition Zone Width. The method, then: as §1, with “using” for “using an”, “assay.” for “assay method.”, “disc” for “disc,”, “h. The” for “h, and then the”, “measured. The results are presented in Table 8 and Table 9 for Cyclo (D)-Pro-(D)-Phe and b3-methyl-N-(2-phenylethyl)butanamide, respectively.” for “measured.”

For the next series, the system named is Vibrio alginolyticus. The experiment in a line: agar disc diffusion assay, inhibition zone. It counts as cell-based. Conditions: 50 μg/disc, 30° C., 24 h, read-out: Inhibition Zone Width. The method, then: as §1, with “using” for “using an”, “assay.” for “assay method.”, “disc” for “disc,”, “h. The” for “h, and then the”, “measured. The results are presented in Table 8 and Table 9 for Cyclo (D)-Pro-(D)-Phe and b3-methyl-N-(2-phenylethyl)butanamide, respectively.” for “measured.”

The next series relates to Vibrio furnissii. The experiment in a line: agar disc diffusion assay, inhibition zone. It counts as cell-based. Conditions: 50 μg/disc, 30° C., 24 h, read-out: Inhibition Zone Width. The method, then: as §1, with “using” for “using an”, “assay.” for “assay method.”, “disc” for “disc,”, “h. The” for “h, and then the”, “measured. The results are presented in Table 8 and Table 9 for Cyclo (D)-Pro-(D)-Phe and b3-methyl-N-(2-phenylethyl)butanamide, respectively.” for “measured.”

For the molecule `OCc1cc(O)cc(Cl)c1O` [Compound 1, 3-chloro-2,5-dihydroxy benzyl alcohol], the zone of inhibition at 50 µg/disc in the series on Ruegeria sp. is 3.5 mm; with Staphylococcus aureus, 5.5 mm; in the series on Vibrio fluvialis, 5.5 mm; in the series with Pseudoalteromonas sp. it was 5.5 mm; in the series on Vibrio sp. (NAP-4), 4 mm; in the series on Vibrio harveyi, 3.5 mm. For the same molecule, the zone of inhibition at 50 µg/disc is 5.5 mm with Moraxella phenylpyruvica; 6 mm in series [1]; 5 mm in series [2]; 6 mm in the series on Micrococcus luteus; 4.5 mm in the series with Shewanella algae. The EC50 in series [3] was found to be 3.5 µg/mL (≈ 20 µM). Besides, the “concentration at which compound started showing anti-settlement effects” value in [3] (as low as) came to 0.1 µg/mL. Also, the barnacle larval settlement entry in [3] (at 5 μg ml^−1, 24 h, 60% in the control) is given as “about 10%”. For the same molecule, the solubility entry in [4] was “soluble”. In addition, the “therapeutic ratio LC50/EC50” value in series [5] is reported as 76.2. In the series “in vivo”, this molecule showed an LC50 at 24 h of 267 µg/mL (≈ 1530 µM).
As for `O=C1NC(Cc2ccccc2)C(=O)N2CCCC12` (stereo not drawn) [Compound 2, cyclo-(Pro-Phe)], the zone of inhibition at 50 µg/disc in the series on Vibrio fluvialis came out at 1.2 ± 0.7 mm; with Pseudoalteromonas sp., 1.7 ± 0.6 mm; in the series on Vibrio sp. (NAP-4), 1.3 ± 0.6 mm; in the series on Vibrio harveyi it was 0.5 mm; with Moraxella phenylpyruvica, 0 mm; in series [1] it was 0.8 ± 0.3 mm. In addition, the zone of inhibition at 50 µg/disc in series [2] was 0 mm; with Micrococcus luteus, 0.5 mm; in the series on Shewanella algae it was 0 mm; in the series with Loktanella hongkongensis, 1.3 ± 0.6 mm; in the series on Vibrio vulnificus, 1 ± 0.1 mm; in the series on Vibrio halioticoli, 0 mm. The zone of inhibition at 50 µg/disc in the series on Rhodovulum sp., in the series on Vibrio alginolyticus and with Vibrio furnissii was 0 mm throughout. Moreover, the EC50 in series [3] is 67.3 µg/mL (≈ 275 µM). In addition, the solubility result in [4] was “soluble”. Moreover, the “therapeutic ratio LC50/EC50” value in series [5] worked out at 1.70. The molecule further came in with an LC50 at 24 h in “in vivo” of 115 µg/mL (≈ 470 µM).
